{"source": "patent US20070191291A1", "about": "“Compound antibacterial drugs comprising n-acetyl-d-glucosamine” (priority 2003, published 2007)", "test_system": "E. coli", "experiment": "Test Example 1: inducing E. coli CGC with N-acetyl-D-glucosamine and antibiotics in different ratios (K-B method, microscopy)", "assay_type": "cell-based", "data": [{"smiles": "CC(=O)N[C@@H]1[C@@H](O)[C@H](O)[C@@H](CO)O[C@H]1O", "note": "[Compound (I), N-acetyl-D-glucosamine]", "values": [{"measurement": "CGC formation", "setting": "Compound (I) 10 mg, aminoglycoside (kanamycin, gentamycin) 50 mg", "result": "− (if cell length was not greater than 50 μm and cell number was within the range from 0 to 4 in each visual field, it was deemed as CGC negative and was marked with “−”)"}, {"measurement": "CGC formation", "setting": "Compound (I) 10 mg, aminoglycoside (kanamycin, gentamycin) 100 mg", "result": "+ (If cell length was more than 50 μm and cell number was more than 5 in each visual field, it was deemed as CGC positive and was marked with “+”)"}, {"measurement": "CGC formation", "setting": "Compound (I) 10 mg, aminoglycoside (kanamycin, gentamycin) 150 mg", "result": "+ (If cell length was more than 50 μm and cell number was more than 5 in each visual field, it was deemed as CGC positive and was marked with “+”)"}, {"measurement": "CGC formation", "setting": "Compound (I) 10 mg, aminoglycoside (kanamycin, gentamycin) 200 mg", "result": "+ (If cell length was more than 50 μm and cell number was more than 5 in each visual field, it was deemed as CGC positive and was marked with “+”)"}, {"measurement": "CGC formation", "setting": "Compound (I) 10 mg, aminoglycoside (kanamycin, gentamycin) 300 mg", "result": "+ (If cell length was more than 50 μm and cell number was more than 5 in each visual field, it was deemed as CGC positive and was marked with “+”)"}, {"measurement": "CGC formation", "setting": "Compound (I) 10 mg, aminoglycoside (kanamycin, gentamycin) 400 mg", "result": "+ (If cell length was more than 50 μm and cell number was more than 5 in each visual field, it was deemed as CGC positive and was marked with “+”)"}, {"measurement": "CGC formation", "setting": "Compound (I) 10 mg, aminoglycoside (kanamycin, gentamycin) 500 mg", "result": "+ (If cell length was more than 50 μm and cell number was more than 5 in each visual field, it was deemed as CGC positive and was marked with “+”)"}, {"measurement": "CGC formation", "setting": "Compound (I) 10 mg, macrolide (spiramycin) 300 mg", "result": "− (if cell length was not greater than 50 μm and cell number was within the range from 0 to 4 in each visual field, it was deemed as CGC negative and was marked with “−”)"}, {"measurement": "CGC formation", "setting": "Compound (I) 10 mg, macrolide (spiramycin) 500 mg", "result": "+ (If cell length was more than 50 μm and cell number was more than 5 in each visual field, it was deemed as CGC positive and was marked with “+”)"}, {"measurement": "CGC formation", "setting": "Compound (I) 10 mg, macrolide (spiramycin) 700 mg", "result": "+ (If cell length was more than 50 μm and cell number was more than 5 in each visual field, it was deemed as CGC positive and was marked with “+”)"}, {"measurement": "CGC formation", "setting": "Compound (I) 10 mg, macrolide (spiramycin) 900 mg", "result": "+ (If cell length was more than 50 μm and cell number was more than 5 in each visual field, it was deemed as CGC positive and was marked with “+”)"}, {"measurement": "CGC formation", "setting": "Compound (I) 10 mg, macrolide (spiramycin) 1100 mg", "result": "+ (If cell length was more than 50 μm and cell number was more than 5 in each visual field, it was deemed as CGC positive and was marked with “+”)"}, {"measurement": "CGC formation", "setting": "Compound (I) 10 mg, macrolide (spiramycin) 1300 mg", "result": "+ (If cell length was more than 50 μm and cell number was more than 5 in each visual field, it was deemed as CGC positive and was marked with “+”)"}, {"measurement": "CGC formation", "setting": "Compound (I) 10 mg, macrolide (spiramycin) 1500 mg", "result": "+ (If cell length was more than 50 μm and cell number was more than 5 in each visual field, it was deemed as CGC positive and was marked with “+”)"}, {"measurement": "CGC formation", "setting": "Compound (I) 50 mg, aminoglycoside (kanamycin, gentamycin) 50 mg", "result": "− (if cell length was not greater than 50 μm and cell number was within the range from 0 to 4 in each visual field, it was deemed as CGC negative and was marked with “−”)"}, {"measurement": "CGC formation", "setting": "Compound (I) 50 mg, aminoglycoside (kanamycin, gentamycin) 100 mg", "result": "− (if cell length was not greater than 50 μm and cell number was within the range from 0 to 4 in each visual field, it was deemed as CGC negative and was marked with “−”)"}, {"measurement": "CGC formation", "setting": "Compound (I) 50 mg, aminoglycoside (kanamycin, gentamycin) 150 mg", "result": "+ (If cell length was more than 50 μm and cell number was more than 5 in each visual field, it was deemed as CGC positive and was marked with “+”)"}, {"measurement": "CGC formation", "setting": "Compound (I) 50 mg, aminoglycoside (kanamycin, gentamycin) 200 mg", "result": "+ (If cell length was more than 50 μm and cell number was more than 5 in each visual field, it was deemed as CGC positive and was marked with “+”)"}, {"measurement": "CGC formation", "setting": "Compound (I) 50 mg, aminoglycoside (kanamycin, gentamycin) 300 mg", "result": "+ (If cell length was more than 50 μm and cell number was more than 5 in each visual field, it was deemed as CGC positive and was marked with “+”)"}, {"measurement": "CGC formation", "setting": "Compound (I) 50 mg, aminoglycoside (kanamycin, gentamycin) 400 mg", "result": "+ (If cell length was more than 50 μm and cell number was more than 5 in each visual field, it was deemed as CGC positive and was marked with “+”)"}, {"measurement": "CGC formation", "setting": "Compound (I) 50 mg, aminoglycoside (kanamycin, gentamycin) 500 mg", "result": "+ (If cell length was more than 50 μm and cell number was more than 5 in each visual field, it was deemed as CGC positive and was marked with “+”)"}, {"measurement": "CGC formation", "setting": "Compound (I) 50 mg, macrolide (spiramycin) 300 mg", "result": "− (if cell length was not greater than 50 μm and cell number was within the range from 0 to 4 in each visual field, it was deemed as CGC negative and was marked with “−”)"}, {"measurement": "CGC formation", "setting": "Compound (I) 50 mg, macrolide (spiramycin) 500 mg", "result": "− (if cell length was not greater than 50 μm and cell number was within the range from 0 to 4 in each visual field, it was deemed as CGC negative and was marked with “−”)"}, {"measurement": "CGC formation", "setting": "Compound (I) 50 mg, macrolide (spiramycin) 700 mg", "result": "+ (If cell length was more than 50 μm and cell number was more than 5 in each visual field, it was deemed as CGC positive and was marked with “+”)"}, {"measurement": "CGC formation", "setting": "Compound (I) 50 mg, macrolide (spiramycin) 900 mg", "result": "+ (If cell length was more than 50 μm and cell number was more than 5 in each visual field, it was deemed as CGC positive and was marked with “+”)"}, {"measurement": "CGC formation", "setting": "Compound (I) 50 mg, macrolide (spiramycin) 1100 mg", "result": "+ (If cell length was more than 50 μm and cell number was more than 5 in each visual field, it was deemed as CGC positive and was marked with “+”)"}, {"measurement": "CGC formation", "setting": "Compound (I) 50 mg, macrolide (spiramycin) 1300 mg", "result": "+ (If cell length was more than 50 μm and cell number was more than 5 in each visual field, it was deemed as CGC positive and was marked with “+”)"}, {"measurement": "CGC formation", "setting": "Compound (I) 50 mg, macrolide (spiramycin) 1500 mg", "result": "+ (If cell length was more than 50 μm and cell number was more than 5 in each visual field, it was deemed as CGC positive and was marked with “+”)"}, {"measurement": "CGC formation", "setting": "Compound (I) 100 mg, aminoglycoside (kanamycin, gentamycin) 50 mg", "result": "− (if cell length was not greater than 50 μm and cell number was within the range from 0 to 4 in each visual field, it was deemed as CGC negative and was marked with “−”)"}, {"measurement": "CGC formation", "setting": "Compound (I) 100 mg, aminoglycoside (kanamycin, gentamycin) 100 mg", "result": "− (if cell length was not greater than 50 μm and cell number was within the range from 0 to 4 in each visual field, it was deemed as CGC negative and was marked with “−”)"}, {"measurement": "CGC formation", "setting": "Compound (I) 100 mg, aminoglycoside (kanamycin, gentamycin) 150 mg", "result": "− (if cell length was not greater than 50 μm and cell number was within the range from 0 to 4 in each visual field, it was deemed as CGC negative and was marked with “−”)"}, {"measurement": "CGC formation", "setting": "Compound (I) 100 mg, aminoglycoside (kanamycin, gentamycin) 200 mg", "result": "+ (If cell length was more than 50 μm and cell number was more than 5 in each visual field, it was deemed as CGC positive and was marked with “+”)"}, {"measurement": "CGC formation", "setting": "Compound (I) 100 mg, aminoglycoside (kanamycin, gentamycin) 300 mg", "result": "+ (If cell length was more than 50 μm and cell number was more than 5 in each visual field, it was deemed as CGC positive and was marked with “+”)"}, {"measurement": "CGC formation", "setting": "Compound (I) 100 mg, aminoglycoside (kanamycin, gentamycin) 400 mg", "result": "+ (If cell length was more than 50 μm and cell number was more than 5 in each visual field, it was deemed as CGC positive and was marked with “+”)"}, {"measurement": "CGC formation", "setting": "Compound (I) 100 mg, aminoglycoside (kanamycin, gentamycin) 500 mg", "result": "+ (If cell length was more than 50 μm and cell number was more than 5 in each visual field, it was deemed as CGC positive and was marked with “+”)"}, {"measurement": "CGC formation", "setting": "Compound (I) 100 mg, macrolide (spiramycin) 300 mg", "result": "− (if cell length was not greater than 50 μm and cell number was within the range from 0 to 4 in each visual field, it was deemed as CGC negative and was marked with “−”)"}, {"measurement": "CGC formation", "setting": "Compound (I) 100 mg, macrolide (spiramycin) 500 mg", "result": "− (if cell length was not greater than 50 μm and cell number was within the range from 0 to 4 in each visual field, it was deemed as CGC negative and was marked with “−”)"}, {"measurement": "CGC formation", "setting": "Compound (I) 100 mg, macrolide (spiramycin) 700 mg", "result": "− (if cell length was not greater than 50 μm and cell number was within the range from 0 to 4 in each visual field, it was deemed as CGC negative and was marked with “−”)"}, {"measurement": "CGC formation", "setting": "Compound (I) 100 mg, macrolide (spiramycin) 900 mg", "result": "+ (If cell length was more than 50 μm and cell number was more than 5 in each visual field, it was deemed as CGC positive and was marked with “+”)"}, {"measurement": "CGC formation", "setting": "Compound (I) 100 mg, macrolide (spiramycin) 1100 mg", "result": "+ (If cell length was more than 50 μm and cell number was more than 5 in each visual field, it was deemed as CGC positive and was marked with “+”)"}, {"measurement": "CGC formation", "setting": "Compound (I) 100 mg, macrolide (spiramycin) 1300 mg", "result": "+ (If cell length was more than 50 μm and cell number was more than 5 in each visual field, it was deemed as CGC positive and was marked with “+”)"}, {"measurement": "CGC formation", "setting": "Compound (I) 100 mg, macrolide (spiramycin) 1500 mg", "result": "+ (If cell length was more than 50 μm and cell number was more than 5 in each visual field, it was deemed as CGC positive and was marked with “+”)"}, {"measurement": "CGC formation", "setting": "Compound (I) 150 mg, aminoglycoside (kanamycin, gentamycin) 50 mg", "result": "− (if cell length was not greater than 50 μm and cell number was within the range from 0 to 4 in each visual field, it was deemed as CGC negative and was marked with “−”)"}, {"measurement": "CGC formation", "setting": "Compound (I) 150 mg, aminoglycoside (kanamycin, gentamycin) 100 mg", "result": "− (if cell length was not greater than 50 μm and cell number was within the range from 0 to 4 in each visual field, it was deemed as CGC negative and was marked with “−”)"}, {"measurement": "CGC formation", "setting": "Compound (I) 150 mg, aminoglycoside (kanamycin, gentamycin) 150 mg", "result": "− (if cell length was not greater than 50 μm and cell number was within the range from 0 to 4 in each visual field, it was deemed as CGC negative and was marked with “−”)"}, {"measurement": "CGC formation", "setting": "Compound (I) 150 mg, aminoglycoside (kanamycin, gentamycin) 200 mg", "result": "− (if cell length was not greater than 50 μm and cell number was within the range from 0 to 4 in each visual field, it was deemed as CGC negative and was marked with “−”)"}, {"measurement": "CGC formation", "setting": "Compound (I) 150 mg, aminoglycoside (kanamycin, gentamycin) 300 mg", "result": "+ (If cell length was more than 50 μm and cell number was more than 5 in each visual field, it was deemed as CGC positive and was marked with “+”)"}, {"measurement": "CGC formation", "setting": "Compound (I) 150 mg, aminoglycoside (kanamycin, gentamycin) 400 mg", "result": "+ (If cell length was more than 50 μm and cell number was more than 5 in each visual field, it was deemed as CGC positive and was marked with “+”)"}, {"measurement": "CGC formation", "setting": "Compound (I) 150 mg, aminoglycoside (kanamycin, gentamycin) 500 mg", "result": "+ (If cell length was more than 50 μm and cell number was more than 5 in each visual field, it was deemed as CGC positive and was marked with “+”)"}, {"measurement": "CGC formation", "setting": "Compound (I) 150 mg, macrolide (spiramycin) 300 mg", "result": "− (if cell length was not greater than 50 μm and cell number was within the range from 0 to 4 in each visual field, it was deemed as CGC negative and was marked with “−”)"}]}]}
